Test results reported in patent US10829478B2, “5-[3-[piperazin-1-yl]-3-oxo-propyl]-imidazolidine-2,4-dione derivatives as ADAMTS 4 and 5 inhibitors for treating e.g. osteoarthritis” (Galapagos NV, priority 2016, dated 2020).
Like-named read-outs stand apart in the source and are kept apart here.

What was measured:
[1] = target: human ADAMTS4 (Homo sapiens (Human), UniProt O75173); assay: hADAMTS-4 TBIS-1 cleavage assay, Protocol 2; format: biochemical
[2] = target: human MMP14 (Homo sapiens (Human), UniProt P50281); assay: hMMP14 assay (390 MMP FRET Substrate I); format: biochemical; details: human MMP14 (Biomol), read-out: hMMP-14 potency IC50
Method: The basis for the assay is the cleavage of the substrate 390 MMP FRET Substrate I (Anaspec Cat #AS-27076) by human MMP14 (Biomol, Cat #SE-259).
The reaction is initiated by adding to the assay plate 390 MMP FRET Substrate I (10 μL, 2.5 μM) in the same buffer.
Finally, the fluorescence is read on the Envision (Perkin Elmer) after an incubation of 60 min at room temperature (Excitation 485 nm, Emission 530).

[3] = target: T1, human MMP13 (Homo sapiens (Human), UniProt P45452); assay: hMMP13 assay, Protocol 2 (390 MMP FRET Substrate I, Enzo enzyme); format: biochemical; details: Protocol 2, human MMP13 (Enzo Life Sciences), read-out: hMMP-13 potency IC50
Method: (§1) Human MMP13 is preactivated by incubated the enzyme in the same buffer complemented with 1 mM freshly prepared p-Aminophenylmercuric acetate (AMPA) for 1 h at 37° C.

[4] = target: T2, human ADAMTS-5 (Homo sapiens (Human), UniProt Q9UNA0); assay: hADAMTS-5 TBIS-1 cleavage assay, Protocol 3; format: biochemical; details: 90 min at 37° C., read-out: hADAMTS-5 potency IC50
T2 sequence (Q9UNA0 262-930): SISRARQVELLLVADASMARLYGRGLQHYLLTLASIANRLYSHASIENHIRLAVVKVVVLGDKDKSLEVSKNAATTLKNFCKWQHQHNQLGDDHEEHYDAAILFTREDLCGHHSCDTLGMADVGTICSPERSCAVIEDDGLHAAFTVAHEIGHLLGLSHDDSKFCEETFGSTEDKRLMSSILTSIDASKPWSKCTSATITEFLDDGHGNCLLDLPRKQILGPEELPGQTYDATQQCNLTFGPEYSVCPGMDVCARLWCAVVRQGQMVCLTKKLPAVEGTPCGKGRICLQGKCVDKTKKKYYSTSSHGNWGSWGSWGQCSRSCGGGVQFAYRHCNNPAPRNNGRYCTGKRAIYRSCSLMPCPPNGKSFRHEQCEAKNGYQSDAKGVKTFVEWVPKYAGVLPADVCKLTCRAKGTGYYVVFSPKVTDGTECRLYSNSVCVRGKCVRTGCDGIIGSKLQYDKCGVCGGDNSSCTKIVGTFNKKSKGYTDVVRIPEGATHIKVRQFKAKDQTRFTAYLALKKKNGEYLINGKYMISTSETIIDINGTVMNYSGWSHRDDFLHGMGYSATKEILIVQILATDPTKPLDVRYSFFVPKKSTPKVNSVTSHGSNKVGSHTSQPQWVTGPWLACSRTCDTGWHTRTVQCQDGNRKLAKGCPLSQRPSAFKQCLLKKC
Method: The reaction is initiated by adding to the assay plate TBIS-1 (10 μL, 4.5 μM, Anaspec) in the same buffer.
Finally, the fluorescence is read on the Envision (Perkin Elmer) after an incubation of 90 min at 37° C. (Excitation 485 nm, emission 530).

[5] = target: human ADAMTS6 (Homo sapiens (Human), UniProt Q9UKP5); assay: hADAMTS-6 fluorescent based protease assay (520 MMP FRET substrate XII); format: biochemical; details: 37° C. for 2 h; read-out: hADAMTS-6 potency IC50
Sequence of human ADAMTS6 (Q9UKP5 other isoform, or with tags, fused parts or gaps): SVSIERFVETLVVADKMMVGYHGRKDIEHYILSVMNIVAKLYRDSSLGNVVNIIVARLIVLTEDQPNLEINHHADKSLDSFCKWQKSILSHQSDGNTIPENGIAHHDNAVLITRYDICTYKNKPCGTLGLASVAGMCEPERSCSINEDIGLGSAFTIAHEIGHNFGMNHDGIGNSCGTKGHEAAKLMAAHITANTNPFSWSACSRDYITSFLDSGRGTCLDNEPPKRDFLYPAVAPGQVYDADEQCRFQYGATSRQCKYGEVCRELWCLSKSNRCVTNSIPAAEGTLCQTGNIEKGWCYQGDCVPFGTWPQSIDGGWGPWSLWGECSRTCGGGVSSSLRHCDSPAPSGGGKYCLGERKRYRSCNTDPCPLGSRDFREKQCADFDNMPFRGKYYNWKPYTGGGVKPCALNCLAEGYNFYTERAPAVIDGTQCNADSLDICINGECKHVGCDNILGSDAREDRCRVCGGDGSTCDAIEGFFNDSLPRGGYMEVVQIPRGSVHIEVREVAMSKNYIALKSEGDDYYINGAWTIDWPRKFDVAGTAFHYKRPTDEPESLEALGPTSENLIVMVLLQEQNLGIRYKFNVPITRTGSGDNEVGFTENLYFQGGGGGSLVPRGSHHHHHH
Method in brief: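 ADAMTS6 (0.73 nM final) in 25 mM Tris pH 8.0, 0.05% CHAPS, 2.5 mM CaCl2 with compound dilution series (top 20 μM, 1/5 steps). Reaction started with 520 MMP FRET Substrate XII, incubated 2 h at 37 °C. Substrate cleavage read by fluorescence ex485/em530; IC50 determined.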

[6] = target: rnADAMTS-5 (1-564-6H) (Rattus norvegicus (Rat), UniProt Q6TY19); assay: Rat ADAMTS-5 TBIS-1 cleavage assay; format: biochemical; details: 120 min at 37° C.; read-out: Rat ADAMTS-5 potency IC50
Sequence of rnADAMTS-5 (1-564-6H) (Q6TY19 entry or part of it): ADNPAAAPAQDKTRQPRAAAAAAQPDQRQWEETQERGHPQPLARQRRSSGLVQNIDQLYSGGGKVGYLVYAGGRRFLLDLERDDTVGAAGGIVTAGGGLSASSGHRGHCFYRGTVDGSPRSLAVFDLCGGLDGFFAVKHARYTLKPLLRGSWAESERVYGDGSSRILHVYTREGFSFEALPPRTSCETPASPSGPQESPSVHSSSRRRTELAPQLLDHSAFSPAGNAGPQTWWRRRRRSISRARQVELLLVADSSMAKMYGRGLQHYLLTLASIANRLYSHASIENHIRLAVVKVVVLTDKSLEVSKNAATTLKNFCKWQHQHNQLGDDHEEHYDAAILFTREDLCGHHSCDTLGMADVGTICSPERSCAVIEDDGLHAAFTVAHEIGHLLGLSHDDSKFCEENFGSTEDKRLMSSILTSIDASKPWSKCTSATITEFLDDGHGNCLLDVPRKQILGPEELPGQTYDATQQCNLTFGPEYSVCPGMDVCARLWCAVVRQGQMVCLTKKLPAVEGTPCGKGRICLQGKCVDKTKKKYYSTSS

[7] = target: human TACE (Homo sapiens (Human), UniProt P78536); assay: biochemical
Sequence of human TACE (P78536 215-671): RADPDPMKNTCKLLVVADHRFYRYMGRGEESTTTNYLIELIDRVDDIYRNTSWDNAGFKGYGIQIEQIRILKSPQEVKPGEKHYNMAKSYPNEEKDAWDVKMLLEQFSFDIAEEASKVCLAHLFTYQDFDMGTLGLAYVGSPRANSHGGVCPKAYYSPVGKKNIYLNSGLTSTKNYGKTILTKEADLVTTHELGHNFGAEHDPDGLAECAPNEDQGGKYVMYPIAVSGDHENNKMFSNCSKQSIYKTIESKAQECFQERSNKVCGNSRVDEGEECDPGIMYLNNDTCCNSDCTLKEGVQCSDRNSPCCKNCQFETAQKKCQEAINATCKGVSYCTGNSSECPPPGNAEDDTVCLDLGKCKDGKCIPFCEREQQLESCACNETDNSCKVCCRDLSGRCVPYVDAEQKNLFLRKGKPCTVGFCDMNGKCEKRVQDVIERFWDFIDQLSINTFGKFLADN
Method: Finally, the fluorescence is read on the Envision (Perkin Elmer) after an incubation of 75 min at room temperature (Excitation 485 nm, Emission 530).

[8] = target: T2, human ADAMTS-5; assay: hADAMTS-5 TBIS-1 cleavage assay, Protocol 2; format: biochemical; details: 45 min at 37° C., read-out: ADAMTS5 potency IC50
[9] = target: T1, human MMP13; assay: hMMP13 assay, Protocol 1 (390 MMP FRET Substrate I, Chemicon enzyme); format: biochemical; details: Protocol 1, human MMP13 (Chemicon), read-out: hMMP-13 potency IC50
Method: as §1

[10] = Protocol 2, 180 min at 37° C., read-out: ADAMTS4 potency IC50

Sequence of human ADAMTS4 (O75173 213-837): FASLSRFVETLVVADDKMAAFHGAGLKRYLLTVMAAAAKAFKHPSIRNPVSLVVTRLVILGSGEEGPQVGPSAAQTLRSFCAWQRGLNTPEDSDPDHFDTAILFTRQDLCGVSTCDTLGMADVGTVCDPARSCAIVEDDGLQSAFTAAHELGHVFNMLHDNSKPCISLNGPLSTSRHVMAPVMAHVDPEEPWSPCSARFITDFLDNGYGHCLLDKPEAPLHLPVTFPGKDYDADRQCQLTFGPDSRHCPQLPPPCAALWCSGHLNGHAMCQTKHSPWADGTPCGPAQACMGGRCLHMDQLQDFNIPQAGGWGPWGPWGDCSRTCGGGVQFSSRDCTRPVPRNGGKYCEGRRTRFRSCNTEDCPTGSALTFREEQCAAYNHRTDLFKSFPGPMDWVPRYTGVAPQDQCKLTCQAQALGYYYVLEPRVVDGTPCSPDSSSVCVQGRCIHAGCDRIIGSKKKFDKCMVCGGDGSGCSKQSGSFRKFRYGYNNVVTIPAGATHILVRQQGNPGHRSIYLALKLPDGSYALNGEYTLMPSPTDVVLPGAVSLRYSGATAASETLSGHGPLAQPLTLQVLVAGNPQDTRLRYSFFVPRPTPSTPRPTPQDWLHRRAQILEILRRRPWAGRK

SMILES	IC50 [1, 10] [nM]	IC50 [4] [nM]	IC50 [5] [nM]	IC50 [6] [nM]	IC50 [7] [nM]	IC50 [8] [nM]	IC50 [9] [nM]	IC50 [2] [nM]	IC50 [3] [nM]	IC50 [1] [nM]
CC1(CCC(=O)N2CCN(c3ccc(OC(F)(F)F)cc3)CC2)NC(=O)NC1=O (centres unmarked) [Cpd 3, 5-methyl-5-[3-oxo-3-[4-[4-(trifluoromethoxy)phenyl]piperazin-1-yl]propyl]imidazolidine-2,4-dione]	> 100	–	> 100	–	> 100	> 100	> 100	–	–	–
CC1(CCC(=O)N2CCN(c3ccccc3OC(F)(F)F)CC2)NC(=O)NC1=O (centres unmarked) [Cpd 4, 5-methyl-5-[3-oxo-3-[4-[2-(trifluoromethoxy)phenyl]piperazin-1-yl]propyl]imidazolidine-2,4-dione]	–	> 100	> 100	–	–	> 100	–	–	–	–
COc1ccc(N2CCN(C(=O)CCC3(C)NC(=O)NC3=O)CC2)cc1 (centres unmarked) [Cpd 5, 5-[3-[4-(4-methoxyphenyl)piperazin-1-yl]-3-oxo-propyl]-5-methyl-imidazolidine-2,4-dione]	–	–	> 100	–	–	> 100	–	–	–	–
COc1cccc(N2CCN(C(=O)CCC3(c4cccnc4)NC(=O)NC3=O)CC2)c1 (centres unmarked) [Cpd 6, 5-[3-[4-(3-methoxyphenyl)piperazin-1-yl]-3-oxo-propyl]-5-(3-pyridyl)imidazolidine-2,4-dione]	–	–	> 100	> 100	> 100	> 100	> 100	–	–	–
COc1ccccc1N1CCN(C(=O)CCC2(C)NC(=O)NC2=O)CC1 (centres unmarked) [Cpd 7, 5-[3-[4-(2-methoxyphenyl)piperazin-1-yl]-3-oxo-propyl]-5-methyl-imidazolidine-2,4-dione]	–	> 100	> 100	–	–	> 100	–	–	–	–
COc1cccc(N2CCN(C(=O)CCC3(c4ccccn4)NC(=O)NC3=O)CC2)c1 (centres unmarked) [Cpd 8, 5-[3-[4-(3-methoxyphenyl)piperazin-1-yl]-3-oxo-propyl]-5-(2-pyridyl)imidazolidine-2,4-dione]	–	–	> 100	> 100	> 100	> 100	> 100	–	–	50 to 100
COc1cc(N2CCN(C(=O)CCC3(C)NC(=O)NC3=O)CC2)ccc1F (centres unmarked) [Cpd 9, 5-[3-[4-(4-fluoro-3-methoxy-phenyl)piperazin-1-yl]-3-oxo-propyl]-5-methyl-imidazolidine-2,4-dione]	–	> 100	50 to 100	> 100	> 100	> 100	> 100	–	–	–
COc1cc(N2CCN(C(=O)CCC3(C)NC(=O)NC3=O)CC2)ccc1Cl (centres unmarked) [Cpd 10, 5-[3-[4-(4-chloro-3-methoxy-phenyl)piperazin-1-yl]-3-oxo-propyl]-5-methyl-imidazolidine-2,4-dione]	> 100	> 100	25 to 50	> 100	> 100	> 100	> 100	–	–	–
COc1cc(N2CCN(C(=O)[C@@H](C)C[C@@]3(c4ccccn4)NC(=O)NC3=O)CC2)cc(F)c1F [Cpd 54, (5 S)-5-[(2S)-3-[4-(3,4-difluoro-5-methoxy-phenyl)piperazin-1-yl]-2-methyl-3-oxo-propyl]-5-(2-pyridyl)imidazolidine-2,4-dione]	–	0.001 to 25	0.001 to 25	0.001 to 25	> 100	–	–	> 100	> 100	25 to 50
COc1cc(N2CCN(C(=O)[C@@H](CO)C[C@@]3(C)NC(=O)NC3=O)CC2)cc(F)c1F [Cpd 56, (5R)-5-[(2R)-3-[4-(3,4-difluoro-5-methoxy-phenyl)piperazin-1-yl]-2-(hydroxymethyl)-3-oxo-propyl]-5-methyl-imidazolidine-2,4-dione]	–	25 to 50	0.001 to 25	25 to 50	> 100	–	–	> 100	> 100	25 to 50
COC[C@]1(C[C@H](C)C(=O)N2CCN(c3cc(F)c(F)c(OC)c3)CC2)NC(=O)NC1=O [Cpd 59, (5 S)-5-[(2S)-3-[4-(3,4-difluoro-5-methoxy-phenyl)piperazin-1-yl]-2-methyl-3-oxo-propyl]-5-(methoxymethyl)imidazolidine-2,4-dione]	–	0.001 to 25	0.001 to 25	0.001 to 25	> 100	–	–	> 100	> 100	25 to 50

Now from value to compound, other results behind:

IC50 [1, 10] [nM]	IC50 [4] [nM]	IC50 [5] [nM]	IC50 [6] [nM]	IC50 [7] [nM]	IC50 [8] [nM]	IC50 [9] [nM]	SMILES	IC50 [2] [nM]	IC50 [3] [nM]	IC50 [1] [nM]
> 100	50 to 100	0.001 to 25	50 to 100	> 100	–	–	COc1cc(N2CCN(C(=O)[C@@H](C)C[C@@]3(CN4CCC(F)(F)C4)NC(=O)NC3=O)CC2)cc(F)c1F (stereo in doubt) [Cpd 52, 5-[3-[4-(3,4-difluoro-5-methoxy-phenyl)piperazin-1-yl]-2-methyl-3-oxo-propyl]-5-[(3,3-difluoropyrrolidin-1-yl)methyl]imidazolidine-2,4-dione]	> 100	> 100	–
> 100	–	> 100	> 100	> 100	> 100	> 100	COc1cc(OC)cc(N2CCN(C(=O)CCC3(C)NC(=O)NC3=O)CC2)c1 (centres unmarked) [Cpd 11, 5-[3-[4-(3,5-dimethoxyphenyl)piperazin-1-yl]-3-oxo-propyl]-5-methyl-imidazolidine-2,4-dione]	–	–	–
–	–	> 100	> 100	> 100	> 100	> 100	COc1cc(F)cc(N2CCN(C(=O)CCC3(C)NC(=O)NC3=O)CC2)c1 (centres unmarked) [Cpd 12, 5-[3-[4-(3-fluoro-5-methoxy-phenyl)piperazin-1-yl]-3-oxo-propyl]-5-methyl-imidazolidine-2,4-dione]	–	–	–
–	–	25 to 50	> 100	> 100	> 100	> 100	COc1cc(Cl)cc(N2CCN(C(=O)CCC3(C)NC(=O)NC3=O)CC2)c1 (centres unmarked) [Cpd 13, 5-[3-[4-(3-chloro-5-methoxy-phenyl)piperazin-1-yl]-3-oxo-propyl]-5-methyl-imidazolidine-2,4-dione]	–	–	–
–	–	> 100	–	–	> 100	–	CCOc1cccc(N2CCN(C(=O)CCC3(C)NC(=O)NC3=O)CC2)c1 (centres unmarked) [Cpd 16, 5-[3-[4-(3-ethoxyphenyl)piperazin-1l-yl]-3-oxo-propyl]-5-methyl-imidazolidine-2,4-dione]	–	–	–
> 100	50 to 100	0.001 to 25	> 100	> 100	–	> 100	COc1cc(N2CCN(C(=O)CCC3(C)NC(=O)NC3=O)C[C@@H]2C)cc(Cl)c1F (some centres unmarked) [Cpd 53, 5-[3-[(3 S)-4-(3-chloro-4-fluoro-5-methoxy-phenyl)-3-methyl-piperazin-1l-yl]-3-oxo-propyl]-5-methyl-imidazolidine-2,4-dione]	> 100	> 100	–
> 100	> 100	0.001 to 25	> 100	> 100	–	–	C[C@H]1CN(C(=O)CC[C@@]2(C)NC(=O)NC2=O)CCN1c1ccc(Cl)c(OC(F)(F)F)c1 [Cpd 86, (5R)-5-[3-[(3S)-4-[4-chloro-3-(trifluoromethoxy)phenyl]-3-methyl-piperazin-1-yl]-3-oxo-propyl]-5-methyl-imidazolidine-2,4-dione]	> 100	> 100	–
